Drawing on US20230159510A1, “NOVEL PRMT5 INHIBITORS” (AMGEN INC., priority 2020, published 2023), this text covers Ki and IC50 for 20 molecules.

The structures appear in SMILES notation. Like-named read-outs stand apart in the source and are kept apart here. Where only a bound is given, the exact number is not on record here.

One experiment has as its target PRMT5/MEP50 (Homo sapiens, UniProt O14744). As to the kind of experiment: MTase-Glo methyl transferase assay, Method A (Histone H4 peptide, 1 µM MTA, 24 h pre-incubation). The class given is biochemical. More on the design: made in house. Conditions: read-out: PRMT5 MTase Glo Ki (nM, Meth. A). The essentials:
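PRMT5/MEP50 (10 nM) pre-incubated 24 h with compound, 5 µM SAM and 1 µM MTA, then reaction started with 1 µM Histone H4 (1-21) peptide and run 2 h at room temperature in Tris pH 8.0 buffer. SAH formed detected by MTase-Glo luminescence; IC50 and KI from dose-response curves.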

A further experiment deals with HCT116 MTAP null cells. As to the kind of experiment: HCT116 proliferation assay, MTAP null cells (CellTiter-Glo, 6 days). The class given is cell-based. Conditions: 144 h, read-out: Protif_ HCT116-MTAP null IC50. In a few lines: (§1)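 RPMI 1640/10% FBS; overnight attachment at 37° C, 5% CO2; 8–9-pt 1:3 titration, top 1 or 10 µM; DMSO ctrl; luminescence readout.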
A general note: Cellular ATP, detected with luciferase, serves as a proxy for viable cell number.

The subject of another experiment is HCT116 WT cells. As to the kind of experiment: HCT116 proliferation assay, WT cells (CellTiter-Glo, 6 days). The class given is cell-based. Conditions: Homo sapiens, HCT-116, 144 h, read-out: Prolif_HCT116-WT IC50. In a few lines: as §1

Chain of PRMT5/MEP50 (O14744 whole entry): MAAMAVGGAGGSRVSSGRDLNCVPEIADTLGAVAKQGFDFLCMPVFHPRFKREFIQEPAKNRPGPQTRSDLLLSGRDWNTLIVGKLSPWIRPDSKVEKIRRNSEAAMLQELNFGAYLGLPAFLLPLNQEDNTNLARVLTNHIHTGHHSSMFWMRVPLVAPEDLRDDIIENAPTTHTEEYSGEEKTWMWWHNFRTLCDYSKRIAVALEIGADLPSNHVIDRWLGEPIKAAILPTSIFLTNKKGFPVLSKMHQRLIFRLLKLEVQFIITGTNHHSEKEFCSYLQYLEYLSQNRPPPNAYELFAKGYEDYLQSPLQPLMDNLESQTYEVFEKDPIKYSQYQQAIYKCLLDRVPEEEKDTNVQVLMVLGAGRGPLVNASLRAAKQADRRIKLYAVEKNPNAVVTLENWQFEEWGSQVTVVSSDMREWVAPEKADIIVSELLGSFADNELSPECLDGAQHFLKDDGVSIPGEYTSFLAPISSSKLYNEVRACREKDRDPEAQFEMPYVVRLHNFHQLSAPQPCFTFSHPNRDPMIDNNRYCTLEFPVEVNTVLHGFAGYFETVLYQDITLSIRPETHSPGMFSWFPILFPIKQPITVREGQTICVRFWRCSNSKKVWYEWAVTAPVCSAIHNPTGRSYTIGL
Chain of PRMT5/MEP50 (Q9BQA1 whole entry partner): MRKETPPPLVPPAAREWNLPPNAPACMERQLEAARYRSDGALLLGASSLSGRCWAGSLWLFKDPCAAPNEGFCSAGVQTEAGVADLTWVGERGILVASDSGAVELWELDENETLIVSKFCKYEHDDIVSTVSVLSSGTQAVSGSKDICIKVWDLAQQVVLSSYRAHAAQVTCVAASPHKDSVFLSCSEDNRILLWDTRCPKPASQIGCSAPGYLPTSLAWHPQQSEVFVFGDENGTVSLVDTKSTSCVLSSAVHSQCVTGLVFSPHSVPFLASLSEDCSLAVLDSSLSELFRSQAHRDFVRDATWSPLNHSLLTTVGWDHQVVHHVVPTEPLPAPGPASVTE

Turning to `Cc1cc2cc(C(=O)N(Cc3ccc(C(F)(F)F)cn3)[C@@H]3CCOc4cccnc43)ccc2nc1N` (single isomer, unassigned) [Example 456], the Ki – broadly, a dissociation constant, usually derived from enzyme kinetics or from competition with a known ligand – at PRMT5/MEP50 was 0.3 nM. Besides, the IC50 (commonly the midpoint of a concentration-inhibition curve) in the experiment with HCT116 MTAP null cells (HCT116-MTAP null) is 39 nM; in the experiment on HCT116 WT cells, 816 nM.
With `C[C@H](c1ncccc1F)N(Cc1ccc(C(F)(F)F)cn1)C(=O)c1cnc2nc(N)c(Br)cc2c1` [Example 388, 7-amino-6-bromo-N-((1R)-1-(3-fluoro-2-pyridinyl)ethyl)-N-((5-(trifluoromethyl)-2-pyridinyl)methyl)-1,8-naphthyridine-3-carboxamide], the Ki on PRMT5/MEP50 is 0.15 nM. In addition, the IC50 in the experiment on HCT116 MTAP null cells (HCT116-MTAP null) amounted to 137 nM; in the experiment with HCT116 WT cells, 4880 nM.
Regarding `CC[C@H](c1ncccn1)N(Cc1ccc(C(F)F)cn1)C(=O)c1ccc2nc(N)c(Br)cc2c1` (single isomer, unassigned) [Example 501], on PRMT5/MEP50, the Ki was 0.02 nM. The IC50 stood at 107 nM in the experiment on HCT116 MTAP null cells (HCT116-MTAP null) and 5920 nM with HCT116 WT cells.
Consider `Cc1cc2cc(C(=O)N(Cc3ccc(C(F)(F)F)nn3)[C@H](C)c3ncccc3Cl)ccc2nc1N` (single isomer, unassigned) [Example 525], for which, at PRMT5/MEP50, the Ki worked out at 0.23 nM. Besides, the results for the 50% inhibitory concentration (IC50) in the experiment on HCT116 MTAP null cells (HCT116-MTAP null) and in the experiment on HCT116 WT cells were 598 nM and 7610 nM, respectively.
On the same counts, the results for `Cc1cc2cc(C(=O)N(Cc3ccc(C(F)(F)F)cn3)Cc3ncccc3Cl)ccc2nc1N` [Example 303, 2-amino-N-((3-chloro-2-pyridinyl)methyl)-3-methyl-N-((5-(trifluoromethyl)-2-pyridinyl)methyl)-6-quinolinecarboxamide] are 0.01 nM, 32 nM and 600 nM.
Consider `Cc1cc2cc(C(=O)N(Cc3ccc(C(F)(F)F)nn3)[C@H](C)c3ncccn3)ccc2nc1N` (single isomer, unassigned) [Example 488], for which the inhibition constant Ki at PRMT5/MEP50 stood at 0.1 nM. Moreover, the 50% inhibitory concentration (IC50) in the experiment on HCT116 MTAP null cells (HCT116-MTAP null) was determined as 35 nM; with HCT116 WT cells, 1280 nM.
On the same counts, the results for `Cc1cc2cc(C(=O)N(Cc3ccc(C(F)(F)F)cn3)[C@H](C)c3ncccn3)cnc2nc1N` (single isomer, unassigned) [Example 486] are 0.42 nM, 123 nM and 3830 nM.
For the molecule `Cc1cc2cc(C(=O)N(Cc3ccc(C(F)F)cn3)[C@H](C)c3ncc(F)cn3)ccc2nc1N` (single isomer, unassigned) [Example 455], the Ki on PRMT5/MEP50 is 0.16 nM. For the same molecule, the half-inhibitory concentration (IC50) was 100 nM in the experiment on HCT116 MTAP null cells (HCT116-MTAP null) and 2940 nM with HCT116 WT cells.
On the same counts, the results for `Cc1cc2cc(C(=O)N(Cc3ccc(C(F)(F)F)cn3)[C@@H]3CCCN(C4CC4)C3=O)ccc2nc1N` (single isomer, unassigned) [Example 462] are 0.29 nM, 349 nM and over 10000 nM.
The like results for `Cc1cc2cc(C(=O)N(Cc3ccc(OC4CC4)cn3)[C@H](C)c3ncccn3)ccc2nc1N` [Example 376, 2-amino-N-((5-(cyclopropyloxy)-2-pyridinyl)methyl)-3-methyl-N-((1R)-1-(2-pyrimidinyl)ethyl)-6-quinolinecarboxamide] were, in that order, 0.02 nM, 62 nM and 1510 nM.
The like results for `Cc1cc2cc(C(=O)N(Cc3ccc(C#N)cn3)[C@H](C)c3ncccn3)c(Cl)cc2nc1N` [Example 438, 2-amino-7-chloro-N-((5-cyano-2-pyridinyl)methyl)-3-methyl-N-((1R)-1-(2-pyrimidinyl)ethyl)-6-quinolinecarboxamide] were, in that order, 0.76 nM, 368 nM and 8790 nM.
In the case of `Cc1cc(CN(Cc2ccc(C(F)(F)F)cn2)C(=O)c2cc3cc(C)c(N)nc3cc2F)no1` [Example 316, 2-amino-7-fluoro-3-methyl-N-((5-methyl-1,2-oxazol-3-yl)methyl)-N-((5-(trifluoromethyl)-2-pyridinyl)methyl)-6-quinolinecarboxamide], the inhibition constant (Ki) at PRMT5/MEP50 turned out to be 1.03 nM. The values for the IC50 in the experiment on HCT116 MTAP null cells (HCT116-MTAP null) and in the experiment with HCT116 WT cells were 534 nM and 10400 nM, respectively.
With `Cc1cc2cc(C(=O)N(Cc3ccc(C(F)(F)F)nn3)[C@H](C)c3ncccc3F)ccc2nc1N` [Example 510, 2-amino-N-((1R)-1-(3-fluoro-2-pyridinyl)ethyl)-3-methyl-N-((6-(trifluoromethyl)-3-pyridazinyl)methyl)-6-quinolinecarboxamide], the inhibitory constant (Ki) on PRMT5/MEP50 came out at 0.32 nM. The half-maximal inhibitory concentration (IC50) in the experiment on HCT116 MTAP null cells (HCT116-MTAP null) was 70 nM; with HCT116 WT cells it was 1910 nM.
Regarding `Cc1cc2cc(C(=O)N(Cc3ccc(C(F)(F)F)cn3)C[C@H](C)C(F)(F)F)ccc2nc1N` [Example 458, 2-amino-3-methyl-N-((2S)-3,3,3-trifluoro-2-methylpropyl)-N-((5-(trifluoromethyl)-2-pyridinyl)methyl)-6-quinolinecarboxamide], the inhibition constant (Ki) at PRMT5/MEP50 amounted to 0.84 nM. In addition, the figures for the IC50 in the experiment with HCT116 MTAP null cells and in the experiment with HCT116 WT cells were 590 nM and over 10000 nM, respectively.
As for `Cc1cc2cc(C(=O)N(Cc3ccc(N4CC(F)(F)C4)cn3)[C@H](C)c3ncccn3)ccc2nc1N` [Example 359, 2-amino-N-((5-(3,3-difluoro-1-azetidinyl)-2-pyridinyl)methyl)-3-methyl-N-((1R)-1-(2-pyrimidinyl)ethyl)-6-quinolinecarboxamide], the Ki on PRMT5/MEP50 was under 0.1 nM. Further, the IC50 with HCT116 MTAP null cells (HCT116-MTAP null) was found to be 208 nM; in the experiment with HCT116 WT cells, 4740 nM.
`C[C@H](c1nccs1)N(Cc1ccc(Br)nn1)C(=O)c1ccc2nc(N)c(Br)cc2c1` [Example 435, 2-amino-3-bromo-N-((6-bromo-3-pyridazinyl)methyl)-N-((1R)-1-(1,3-thiazol-2-yl)ethyl)-6-quinolinecarboxamide]: the inhibition constant Ki on PRMT5/MEP50 was determined as 0.08 nM. The IC50 in the experiment on HCT116 MTAP null cells (HCT116-MTAP null) was 66 nM; with HCT116 WT cells it was 3280 nM.
With `Cc1cc2cc(C(=O)N(Cc3ccc(C(F)(F)F)nn3)[C@@H]3CCc4cccnc43)ccc2nc1N` [Example 395, 2-amino-N-((7R)-6,7-dihydro-5H-cyclopenta[b]pyridin-7-yl)-3-methyl-N-((6-(trifluoromethyl)-3-pyridazinyl)methyl)-6-quinolinecarboxamide], at PRMT5/MEP50, the inhibitory constant (Ki) is 0.16 nM. Moreover, the IC50 stood at 82 nM with HCT116 MTAP null cells (HCT116-MTAP null) and 2370 nM in the experiment on HCT116 WT cells.
The like results for `Cc1cc2cc(C(=O)N(Cc3ccc(C(N)=O)cn3)[C@H](C)c3ccccc3F)ccc2nc1N` [Example 550, 2-amino-N-((5-carbamoyl-2-pyridinyl)methyl)-N-((1R)-1-(2-fluorophenyl)ethyl)-3-methyl-6-quinolinecarboxamide] were, in that order, 0.14 nM, 199 nM and 5930 nM.
On the same counts, the results for `C[C@H](c1ccc(F)cc1F)N(Cc1ccc(C(F)(F)F)cn1)C(=O)c1cnc2nc(N)c(Br)cc2c1` [Example 346, 7-amino-6-bromo-N-((1R)-1-(2,4-difluorophenyl)ethyl)-N-((5-(trifluoromethyl)-2-pyridinyl)methyl)-1,8-naphthyridine-3-carboxamide] are 0.04 nM, 81 nM and 1580 nM.
The like results for `Cc1cc2cc(C(=O)N(Cc3cnc(C(F)(F)F)cn3)[C@H](C)c3ccc(F)cn3)ccc2nc1N` (single isomer, unassigned) [Example 483] were, in that order, 1.02 nM, 515 nM and over 10000 nM.
